Assays:
Format in all cases: physicochemical
[1] = 1,3-dipolar cycloaddition kinetics by HPLC; conditions: with N-benzylazidoacetamide; CH2Cl2 (FIG. 1)
Procedure: (§1) The rates of reaction for the 1,3-dipolar cycloaddition of dipoles N-benzylazidoacetamide and N-benzyldiazoacetamide with compound 3 in both aprotic (CH2Cl2) and protic solvents (MeOH and PBS containing 2% v/v DMSO) were measured. The depletion of compound 3by using HPLC and second-order rate constants were calculated from the slope of a plot of [compound 3]^−1 versus time. As a benchmark, the rate of the reaction of DIBO with each dipole was also measured.
(§2) Kinetics General Method A. Stock solutions at the specified concentrations in the specified solvents were prepared for each dipole and dipolarophile. Aliquots (0.5 mL) of dipole and dipolarophile were mixed, and reactions were monitored by HPLC with aliquots injected at the timepoints shown in the kinetic traces below. Each reaction was carried out in triplicate. The concentration of remaining dipolarophile was obtained from its corresponding peak in the chromatogram monitored at 280 nm. Second-order rate constants were calculated from the slope of the plot of [dipolarophile]^−1 versus time.
Reaction of N-benzylazidoacetamide with DIBO in CH2Cl2. Kinetics General Method A was followed using stock solutions at 2 mM and resulting in final reaction concentrations of 1 mM N-benzylazidoacetamide and 1 mM DIBO.
Reaction of N-benzylazidoacetamide with compound 3 in CH2Cl2. […]

[2] = 1,3-dipolar cycloaddition kinetics by HPLC
Procedure: as §1, §2
Reaction of N-benzyldiazoacetamide with DIBO in CH2Cl2. Kinetics General Method A was followed using stock solutions at 2 mM and resulting in final reaction concentrations of 1 mM N-benzyldiazoacetamide and 1 mM DIBO.
Reaction of N-benzyldiazoacetamide with compound 3 in CH2Cl2. […]

[3] = 1,3-dipolar cycloaddition kinetics by HPLC; conditions: CH2Cl2 (FIG. 1)
Procedure: To assess the effect of the putative hydrogen bond, the reactivity of compound 3 and DIBO with ethyl diazoacetate, which lacks a hydrogen bond donor, was tested. The rate constant for the reaction of compound 3 with ethyl diazoacetate was nearly 200-fold lower than that with N-benzylazidoacetamide. This decrease is substantially greater than the 4-fold decrease in rate constant for the reaction of these same dipoles with DIBO (FIG. 1).
as §2
Reaction of ethyl diazoacetate with compound 3 in CH2Cl2. Kinetics General Method A was followed using stock solutions at 400 μM and resulting in final reaction concentrations of 200 μM ethyl diazoacetate and 200 μM compound 3.

[4] = 1,3-dipolar cycloaddition kinetics by HPLC; conditions: CH2Cl2, 26° C., triplicate
Procedure: as §2
Reaction of 2-Azido-N-methyl-N-(phenylmethyl)acetamide with compound 3 in CH2Cl2. Kinetics General Method A was followed using stock solutions at 80 μM and resulting in final reaction concentrations of 40 μM 2-Azido-N-methyl-N-(phenylmethyl)acetamide and 40 μM compound 3.

[5] = 1,3-dipolar cycloaddition kinetics by HPLC; conditions: CH2Cl2, 26° C., triplicate; remark: listed apart in the source
Procedure: as §2
Reaction of compound 9 with compound 3 in CH2Cl2. Kinetics General Method A was followed using stock solutions at 80 μM and resulting in final reaction concentrations of 40 μM 2-Diazo-N-methyl-N-(phenylmethyl)acetamide and 40 μM compound 3.

[6] = Cyclooctyne stability in the presence of glutathione; conditions: 25 μM
Procedure: The stability of ABC in the presence of biological nucleophiles was determined using a biomimetic concentration of glutathione, which contains amino, carboxyl, and sulfhydryl groups. DIBAC was used as a comparator.
A solution of compound 3 (25 μM) or DIBAC (25 μM) was prepared in phosphate-buffered saline containing reduced glutathione (1.0 mM), oxidized glutathione (0.2 mM), and DMSO (2% v/v). The solutions were incubated at 37° C. (FIG. 6), and HPLC analyses were carried out every hour to determine the remaining concentration of dipolarophile. Subsequently, plots of In(concentration) versus time were prepared to calculate values of kobs for the degradation. These values were divided by the concentration of reduced glutathione to obtain second-order rate constants for the degradation with respect to reduced glutathione.

Molecule | rate increase relative to DIBO [1] [fold] | rate increase of N-benzyl diazoacetamide over N-benzyl azidoacetamide ([2]; diazoacetamide over azidoacetamide) [fold] | rate increase relative to DIBO ([2]; with N-benzyl diazoacetamide, CH2Cl2 (FIG. 1)) | decrease in rate constant with ethyl diazoacetate relative to N-benzylazidoacetamide [3] [fold] | second-order rate constant k [4] [M⁻¹ s⁻¹] | second-order rate constant k [5] [M⁻¹ s⁻¹] | second-order rate constant of degradation with respect to reduced glutathione [6] [M⁻¹ s⁻¹] | second-order rate constant of degradation with respect to reduced glutathione ([6]; 1 mM reduced and 0.2 mM oxidized glutathione in PBS containing DMSO (2% v/v), 37° C., HPLC) [M⁻¹ s⁻¹]
Clc1ccc2c(c1)CCc1cccnc1C#C2 [compound 3, 2-Azabenzo-8-chlorobenzocyclooctyne] | 30 | ~20 | 1,200 fold | ~200 | 1.0 | 0.75 | 0.10 | 
dibenzoazacyclooctyne [DIBAC, reference compound] |  |  |  |  |  |  |  | 0.05

— patent US11673865B2, “Cyclooctynes for click chemistry” (Massachusetts Institute of Technology, priority 2021, dated 2023)
